Measured values reported in US11638707B2, “Substituted amino triazoles useful as chitinase inhibitors” (Molecure S.A., priority 2019, dated 2023).
pIC50: −log10 of the molar value.

What was measured:
recombinant human CHIT1 = recombinant human CHIT1 (Homo sapiens (Human), UniProt Q13231); experiment: Human CHIT1 activity assay; assay type: biochemical; details: recombinant human CHIT1, citrate buffer pH 5.2, 37° C., 60 minutes; read-out: hCHIT1, IC50
How it was run: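 Recombinant human CHIT1 hydrolysed 4-methylumbelliferyl β-D-N,N′,N″-triacetylchitotriose in citrate buffer, pH 5.2, for 60 minutes at 37° C in the dark with shaking. Released 4MU was read by fluorescence at 460 nm under basic pH; IC50 values were calculated from dilution series.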

recombinant human AMCase = recombinant human AMCase (Homo sapiens (Human), UniProt Q9BZP6); experiment: Human AMCase activity assay; assay type: biochemical; details: citrate buffer pH 5.2, 37° C., 60 minutes, read-out: hAMCase, IC50
Sequence of recombinant human AMCase (Q9BZP6 22-476): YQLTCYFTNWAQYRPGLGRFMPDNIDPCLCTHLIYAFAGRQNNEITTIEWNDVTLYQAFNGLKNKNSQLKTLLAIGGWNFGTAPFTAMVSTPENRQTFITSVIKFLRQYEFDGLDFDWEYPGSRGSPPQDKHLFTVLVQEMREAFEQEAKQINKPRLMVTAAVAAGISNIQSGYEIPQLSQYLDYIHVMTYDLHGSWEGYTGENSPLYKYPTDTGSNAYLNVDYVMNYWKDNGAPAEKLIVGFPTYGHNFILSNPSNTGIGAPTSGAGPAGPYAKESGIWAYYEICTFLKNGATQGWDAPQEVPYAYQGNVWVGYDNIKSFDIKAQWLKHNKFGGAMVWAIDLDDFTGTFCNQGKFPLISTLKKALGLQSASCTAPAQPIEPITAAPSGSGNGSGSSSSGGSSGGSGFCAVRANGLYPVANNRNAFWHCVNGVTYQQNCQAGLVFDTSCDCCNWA
How it was run: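 Recombinant hAMCase hydrolysed 4-methylumbelliferyl β-D-N,N′-diacetylchitobioside in citrate buffer pH 5.2, run 60 min at 37 °C in the dark with shaking. Released 4MU fluorescence was read at 460 nm under basic pH, and IC50 values were fitted from the compound dilutions.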

hERG channel = hERG channel (Homo sapiens (Human), UniProt Q12809); experiment: Human ERG channel binding assay (fluorescence polarization); details: Table 1; tracer displacement, 4 h at room temperature
Sequence of hERG channel (Q12809 whole entry): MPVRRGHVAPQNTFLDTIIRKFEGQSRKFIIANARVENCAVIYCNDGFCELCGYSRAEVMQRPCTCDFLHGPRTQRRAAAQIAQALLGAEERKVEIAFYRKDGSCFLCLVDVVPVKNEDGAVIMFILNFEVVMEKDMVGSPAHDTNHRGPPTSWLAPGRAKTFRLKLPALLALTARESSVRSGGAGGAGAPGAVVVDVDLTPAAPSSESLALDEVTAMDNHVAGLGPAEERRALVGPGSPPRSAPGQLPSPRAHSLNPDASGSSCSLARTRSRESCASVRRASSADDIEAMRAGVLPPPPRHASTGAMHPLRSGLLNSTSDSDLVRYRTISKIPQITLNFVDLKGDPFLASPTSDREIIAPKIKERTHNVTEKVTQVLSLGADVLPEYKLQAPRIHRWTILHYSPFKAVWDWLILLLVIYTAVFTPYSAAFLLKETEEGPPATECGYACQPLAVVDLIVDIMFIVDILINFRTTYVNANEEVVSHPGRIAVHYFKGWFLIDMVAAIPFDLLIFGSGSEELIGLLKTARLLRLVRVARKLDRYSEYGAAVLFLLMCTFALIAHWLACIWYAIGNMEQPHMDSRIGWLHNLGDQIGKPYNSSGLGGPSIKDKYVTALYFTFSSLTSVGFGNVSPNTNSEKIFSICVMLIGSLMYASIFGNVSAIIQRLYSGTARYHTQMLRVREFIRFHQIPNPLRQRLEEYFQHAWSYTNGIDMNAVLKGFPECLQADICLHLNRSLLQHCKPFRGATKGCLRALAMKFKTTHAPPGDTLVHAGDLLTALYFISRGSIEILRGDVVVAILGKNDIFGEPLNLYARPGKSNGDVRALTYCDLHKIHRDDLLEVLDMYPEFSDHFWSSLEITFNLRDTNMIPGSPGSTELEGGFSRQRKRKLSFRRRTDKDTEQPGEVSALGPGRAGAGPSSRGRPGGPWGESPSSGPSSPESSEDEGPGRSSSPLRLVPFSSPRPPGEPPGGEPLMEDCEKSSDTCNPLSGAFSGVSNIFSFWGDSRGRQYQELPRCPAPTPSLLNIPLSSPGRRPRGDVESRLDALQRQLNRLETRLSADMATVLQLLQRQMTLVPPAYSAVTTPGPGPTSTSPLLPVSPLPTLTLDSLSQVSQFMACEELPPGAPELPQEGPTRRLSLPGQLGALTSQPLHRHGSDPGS
How it was run: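 Serially diluted compounds were incubated with a hERG-containing membrane fraction and a high-affinity red-shifted fluorescent hERG ligand. Displacement of the tracer was read by fluorescence polarization, and IC50 values were derived from the concentration-response curves.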

Sequence of recombinant human CHIT1 (Q13231 22-466): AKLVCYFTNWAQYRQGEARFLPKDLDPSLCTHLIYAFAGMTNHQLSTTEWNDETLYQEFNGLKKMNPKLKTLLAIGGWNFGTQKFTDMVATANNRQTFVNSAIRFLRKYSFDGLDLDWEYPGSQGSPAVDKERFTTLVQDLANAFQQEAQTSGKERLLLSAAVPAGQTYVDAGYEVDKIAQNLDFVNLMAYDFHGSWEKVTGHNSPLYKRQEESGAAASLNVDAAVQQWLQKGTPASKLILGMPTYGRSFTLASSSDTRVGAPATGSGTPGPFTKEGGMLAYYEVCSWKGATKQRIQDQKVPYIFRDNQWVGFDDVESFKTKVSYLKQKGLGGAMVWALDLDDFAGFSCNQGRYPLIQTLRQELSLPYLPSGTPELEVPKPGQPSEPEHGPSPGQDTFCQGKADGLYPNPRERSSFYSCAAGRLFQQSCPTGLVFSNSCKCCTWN

SMILES	pIC50 (recombinant human CHIT1)	pIC50 (recombinant human AMCase)	pIC50 (hERG channel)
Cc1cc([C@H]2CN(C3CCN(c4nnc(N)[nH]4)CC3)[C@@H](Cc3ccc(Cl)cc3)CO2)on1 [Example 22, 5-(4-((2R,5S)-5-(4-chlorobenzyl)-2-(3-methylisoxazol-5-yl)morpholino)piperidin-1-yl)-4H-1,2,4-triazol-3-amine 2,2,2-trifluoroacetate]	> 7.00	> 7.00	< 4.00
Nc1nnc(N2CCC(N3C[C@H](N4CCOCC4)CC[C@@H]3Cc3ccc(Cl)cc3)CC2)[nH]1 [Example 58, 5-((2R,5R)-2-(4-chlorobenzyl)-5-morpholino-[1,4′-bipiperidin]-1′-yl)-4H-1,2,4-triazol-3-amine 2,2,2-trifluoroacetate]	6.00 to 7.00	> 7.00	4.60 to 5.00
Nc1nnc(N2CCC(N3C[C@H](C(=O)N4CC(F)C4)OC[C@@H]3Cc3ccc(Cl)cc3)CC2)[nH]1 [Example 62, ((2R,5S)-4-(1-(5-amino-4H-1,2,4-triazol-3-yl)piperidin-4-yl)-5-(4-chlorobenzyl)-morpholin-2-yl)(3-fluoroazetidin-1-yl)methanone 2,2,2-trifluoroacetate]	> 7.00	> 7.00	< 4.00
C[C@@H](O)[C@H]1CN(C2CCN(c3nnc(N)[nH]3)CC2)[C@@H](Cc2ccc(Cl)cc2)CO1 [Example 67, (R)-1-((2R,5S)-4-(1-(5-amino-4H-1,2,4-triazol-3-yl)piperidin-4-yl)-5-(4-chlorobenzyl)morpholin-2-yl)ethanol 2,2,2-trifluoroacetate]	> 7.00	> 7.00	< 4.00
Nc1nnc(N2CCC(N3C[C@H](C(F)F)OC[C@@H]3Cc3ccc(Cl)cc3)CC2)[nH]1 [Example 2, 5-(4-((2R,5S)-5-(4-chlorobenzyl)-2-(difluoromethyl)morpholino)piperidin-1-yl)-4H-1,2,4-triazol-3-amine 2,2,2-trifluoroacetate]	> 7.00	> 7.00	< 4.00
CCC(O)(CC)[C@H]1CN(C2CCN(c3nnc(N)[nH]3)CC2)[C@@H](Cc2ccc(Cl)cc2)CO1 [Example 68, 3-((2R,5S)-4-(1-(5-amino-4H-1,2,4-triazol-3-yl)piperidin-4-yl)-5-(4-chlorobenzyl)-morpholin-2-yl)pentan-3-ol 2,2,2-trifluoroacetate]	> 7.00	> 7.00	4.00 to 4.60
CC1(C)CC1NC(=O)[C@H]1CN(C2CCN(c3nnc(N)[nH]3)CC2)[C@@H](Cc2ccc(Cl)cc2)CO1 (stereo partly drawn) [Example 23, (2R,5S)-4-(1-(5-amino-4H-1,2,4-triazol-3-yl)piperidin-4-yl)-5-(4-chlorobenzyl)-N-(2,2-dimethylcyclopropyl)morpholine-2-carboxamide 2,2,2-trifluoroacetate]	> 7.00	> 7.00	< 4.00

The next lines start with results.

pIC50 (recombinant human CHIT1)	pIC50 (recombinant human AMCase)	SMILES	pIC50 (hERG channel)
> 7.00	> 7.00	Nc1nnc(N2CCC(N3C[C@H](CN4CCOCC4)OC[C@@H]3Cc3ccc(Cl)cc3)CC2)[nH]1 [Example 15, 5-(4-((2S,5S)-5-(4-chlorobenzyl)-2-(morpholinomethyl)morpholino)piperidin-1-yl)-4H-1,2,4-triazol-3-amine 2,2,2-trifluoroacetate]	< 4.00
6.00 to 7.00	> 7.00	Nc1nnc(N2CCC(N3C[C@H](CN4CC[C@@H](O)C4)OC[C@@H]3Cc3ccc(Cl)cc3)CC2)[nH]1 [Example 31, (R)-1-(((2S,5S)-4-(1-(5-amino-4H-1,2,4-triazol-3-yl)piperidin-4-yl)-5-(4-chlorobenzyl)morpholin-2-yl)methyl)pyrrolidin-3-ol 2,2,2-trifluoroacetate]	< 4.00
> 7.00	> 7.00	Nc1nnc(N2CCC(N3C[C@H](Cn4ccnn4)OC[C@@H]3Cc3ccc(Cl)cc3)CC2)[nH]1 [Example 21, 5-(4-((2R,5S)-2-((1H-1,2,3-triazol-1-yl)methyl)-5-(4-chlorobenzyl)morpholino)-piperidin-1-yl)-4H-1,2,4-triazol-3-amine 2,2,2-trifluoroacetate]	4.00 to 4.60
